From ChEMBL document CHEMBL1154214, “Scalarane sesterterpenoids: semisynthesis and biological activity” (J Nat Prod, 2009)

What was measured:
[1] = tested on: SK-MEL; test: Cytotoxicity against human SK-MEL cells after 48 hrs by Neutral red assay; assay type: functional, cell-based
[2] = tested on: Mycobacterium intracellulare; test: Antimicrobial activity against […] Mycobacterium intracellular ATCC 23068; assay type: functional, organism-based
[3] = tested on: BT-549; test: Cytotoxicity against human BT549 cells after 48 hrs by Neutral red assay; assay type: functional, cell-based
[4] = tested on: Vero; test: Cytotoxicity against african green monkey Vero cells after 48 hrs by Neutral red assay; assay type: cell-based, Chlorocebus sabaeus
[5] = tested on: SK-OV-3; test: Cytotoxicity against human SKOV3 cells after 48 hrs by Neutral red assay; assay type: functional, cell-based
[6] = tested on: Staphylococcus aureus; test: Antimicrobial activity against methicillin resistant Staphylococcus aureus ATCC 43300; assay type: functional, organism-based
[7] = Homo sapiens, SK-MEL, 48 h, read-out: IC50
[8] = Homo sapiens, BT-549, 48 h, read-out: IC50
[9] = Chlorocebus sabaeus, Vero, 48 h, read-out: IC50
[10] = Homo sapiens, SK-OV-3, 48 h, read-out: IC50
[11] = Staphylococcus aureus, ATCC 43300, read-out: IC50
[12] = Mycobacterium intracellulare, ATCC 23068, read-out: IC50

SMILES	IC50 ([1]; sk-mel)	IC50 [2]	IC50 ([3]; bt-549)	IC50 ([4]; vero)	IC50 ([5]; sk-ov-3)	IC50 [6]	IC50 [1, 7]	IC50 [3, 8]	IC50 [4, 9]	IC50 [5, 10]	IC50 [6, 11]	IC50 [2, 12]	IC50 ([2]; Mycobacterium intracellulare, ATCC 23068)
CC1(C)CCC[C@]2(C)[C@H]3C[C@@H](O)[C@]4(C)[C@H]5COC(=O)C5=CC[C@H]4[C@]3(C)CC[C@@H]12	Not Active	Not Active	Not Active	Not Active	Not Active	Not Active	–	–	–	–	–	–	–
CC1(C)CCC[C@]2(C)[C@H]3C[C@@H](O)[C@]4(C)c5cocc5C=C[C@H]4[C@]3(C)CC[C@@H]12	Not Active	Not Active	Not Active	Not Active	Not Active	Not Active	–	–	–	–	–	–	–
CC(=O)O[C@@H]1C[C@@H]2[C@@]3(C)CCCC(C)(C)[C@@H]3CC[C@@]2(C)[C@@H]2CC=C3C(=O)O[C@@H](O)[C@@H]3[C@@]12C	Not Active	Not Active	Not Active	Not Active	Not Active	Not Active	–	–	–	–	–	–	–
CC(=O)O[C@@H]1OCC2[C@@H](OC(C)=O)C[C@H]3[C@]4(C)CC[C@H]5C(C)(C)CCC[C@]5(C)[C@H]4C[C@@H](O)[C@]3(C)[C@H]21 (some centres undefined)	–	Not Active	–	–	–	Not Active	> 37.3 µM	15.9 µM	36.7 µM	18.3 µM	–	–	–
CC1(C)CCC[C@]2(C)[C@H]3CC(=O)[C@]4(C)[C@@H](C=O)C(C=O)=CC[C@H]4[C@]3(C)CC[C@@H]12	–	Not Active	–	–	–	–	14.6 µM	15.6 µM	18.2 µM	41.6 µM	27.8 µM	–	–
CC(=O)O[C@@H]1OC=C2[C@@H](OC(C)=O)C[C@H]3[C@]4(C)CC[C@H]5C(C)(C)CCC[C@]5(C)[C@H]4C[C@@H](O)[C@]3(C)[C@H]21 [HETERONEMIN]	–	–	–	–	–	Not Active	15.3 µM	11.2 µM	8.2 µM	3.4 µM	–	2.04 µM	–
CO[C@H]1O[C@@H](OC)[C@H]2C1=CC[C@H]1[C@]3(C)CC[C@H]4C(C)(C)CCC[C@]4(C)[C@H]3C[C@@H](O)[C@]21C	Not Active	Not Active	Not Active	Not Active	Not Active	Not Active	–	–	–	–	–	–	–
CC1(C)CCC[C@]2(C)[C@H]3C[C@@H](O)[C@]4(C)[C@@H](C=O)C(C=O)=CC[C@H]4[C@]3(C)CC[C@@H]12	–	–	–	–	–	–	26.4 µM	19.4 µM	19.4 µM	31 µM	22 µM	38.8 µM	–
O=C(O)c1cn(C2CC2)c2cc(N3CCNCC3)c(F)cc2c1=O [CIPROFLOXACIN]	–	–	–	–	–	–	–	–	–	–	0.14 µM	–	0.47 µM
CO[C@@H]1C[C@H]2[C@]3(C)CC[C@H]4C(C)(C)CCC[C@]4(C)[C@H]3C[C@@H](O)[C@]2(C)c2cocc21 [16-O-METHYLSESTERSTATIN 4]	Not Active	Not Active	Not Active	Not Active	Not Active	Not Active	–	–	–	–	–	–	–
CC1(C)CCC[C@]2(C)[C@H]3CC(=O)[C@]4(C)[C@H](C=O)C(C=O)=CC[C@H]4[C@]3(C)CC[C@@H]12	–	Not Active	–	–	–	–	14.3 µM	15.6 µM	15.6 µM	31.2 µM	30.1 µM	–	–
CC(=O)O[C@H]1C[C@H]2[C@]3(C)CC[C@H]4C(C)(C)CCC[C@]4(C)[C@H]3C[C@@H](O)[C@]2(C)c2cocc21 [SCALARAFURAN]	Not Active	Not Active	Not Active	Not Active	Not Active	Not Active	–	–	–	–	–	–	–
CC1(C)CCC[C@]2(C)[C@H]3C[C@@H](O)[C@]4(C)c5cocc5[C@@H](O)C[C@H]4[C@]3(C)CC[C@@H]12 [SESTERSTATIN 5]	Not Active	Not Active	Not Active	Not Active	Not Active	Not Active	–	–	–	–	–	–	–
COc1cccc2c1C(=O)c1c(O)c3c(c(O)c1C2=O)C[C@@](O)(C(=O)CO)C[C@@H]3O[C@H]1C[C@H](N)[C@H](O)[C@H](C)O1 [DOXORUBICIN]	–	–	–	–	–	–	1.2 µM	1.2 µM	6.3 µM	0.8 µM	–	–	–
CC1(C)CCC[C@]2(C)[C@H]3C[C@@H](O)[C@]4(C)[C@H](C=O)C(C=O)=CC[C@H]4[C@]3(C)CC[C@@H]12	–	Not Active	–	–	–	–	18.6 µM	12.9 µM	20.7 µM	19.4 µM	3.8 µM	–	–
CC(=O)O[C@@H]1OC=C2[C@@H](OC(C)=O)C[C@H]3[C@]4(C)CC[C@H]5C(C)(C)CCC[C@]5(C)[C@H]4CC(=O)[C@]3(C)[C@H]21	Not Active	–	–	–	–	Not Active	–	> 37.6 µM	> 37.6 µM	> 37.6 µM	–	5.1 µM	–
CO[C@@H]1O[C@@H](OC)[C@H]2C1=CC[C@H]1[C@]3(C)CC[C@H]4C(C)(C)CCC[C@]4(C)[C@H]3C[C@@H](O)[C@]21C	Not Active	Not Active	Not Active	Not Active	Not Active	Not Active	–	–	–	–	–	–	–
CC(=O)O[C@@H]1OC=C2[C@@H](OC(C)=O)C[C@H]3[C@]4(C)CC[C@H]5C(C)(C)CCC[C@]5(C)[C@H]4C[C@@H](OC(C)=O)[C@]3(C)[C@H]21 [HETERONEMIN ACETATE]	–	–	–	–	–	Not Active	16.7 µM	18.8 µM	9 µM	18.8 µM	–	18.8 µM	–
CC1(C)CCC[C@]2(C)[C@H]3C[C@@H](O)[C@]4(C)C(CO)C(CO)=CC[C@H]4[C@]3(C)CC[C@@H]12 (some centres undefined)	Not Active	Not Active	Not Active	Not Active	Not Active	Not Active	–	–	–	–	–	–	–
CC(=O)O[C@@H]1C[C@@H]2[C@@]3(C)CCCC(C)(C)[C@@H]3CC[C@@]2(C)[C@@H]2CC=C(C=O)[C@H](C=O)[C@@]12C	–	Not Active	–	–	–	–	> 42.7 µM	21 µM	22.2 µM	23.3 µM	6.3 µM	–	–
